For the data set, the system named is CCRIS mutagenicity, Ames/micronucleus/aberration tests. Kind of data set: CCRIS mutagenicity studies.

Activity calls are given as the source filed them. The rule behind the calls is not given here.

`c1cc(OCC2CO2)cc(OCC2CO2)c1` (stereo unspecified): the mutagenic call is “active; positive” (End Point: IN VITRO CHROMOSOMAL ABERRATIONS, Test System: CHO CELLS, Metabolic Activation: NONE); “active; positive; weak response” (End Point: IN VITRO CHROMOSOMAL ABERRATIONS, Test System: CHO CELLS, Metabolic Activation: RAT, LIVER, S-9, AROCLOR 1254); “inactive; negative” (Test System: AMES SALMONELLA TYPHIMURIUM, Strain/Indicator: TA98, Metabolic Activation: HAMSTER, LIVER, S-9, AROCLOR 1254, Method: PREINCUBATION); “inactive; negative” (Test System: AMES SALMONELLA TYPHIMURIUM, Strain/Indicator: TA98, Metabolic Activation: NONE, Method: PREINCUBATION); “inactive; negative” (Test System: AMES SALMONELLA TYPHIMURIUM, Strain/Indicator: TA98, Metabolic Activation: RAT, LIVER, S-9, AROCLOR 1254, Method: PREINCUBATION); “active; positive” (Test System: AMES SALMONELLA TYPHIMURIUM, Strain/Indicator: TA100, Metabolic Activation: HAMSTER, LIVER, S-9, AROCLOR 1254, Method: PREINCUBATION). Moreover, the mutagenic call reads like this: (Test System: AMES SALMONELLA TYPHIMURIUM, Strain/Indicator: TA100, Metabolic Activation: NONE, Method: PREINCUBATION) “active; positive”; (Test System: AMES SALMONELLA TYPHIMURIUM, Strain/Indicator: TA100, Metabolic Activation: RAT, LIVER, S-9, AROCLOR 1254 (10%), Method: PREINCUBATION) “active; positive”; (Test System: AMES SALMONELLA TYPHIMURIUM, Strain/Indicator: TA100, Metabolic Activation: RAT, LIVER, S-9, AROCLOR 1254, Method: PREINCUBATION) “active; positive”; (Test System: AMES SALMONELLA TYPHIMURIUM, Strain/Indicator: TA1535, Metabolic Activation: HAMSTER, LIVER, S-9, AROCLOR 1254 (10%), Method: PREINCUBATION) “active; positive”; (Test System: AMES SALMONELLA TYPHIMURIUM, Strain/Indicator: TA1535, Metabolic Activation: HAMSTER, LIVER, S-9, AROCLOR 1254, Method: PREINCUBATION) “active; positive”; (Test System: AMES SALMONELLA TYPHIMURIUM, Strain/Indicator: TA1535, Metabolic Activation: NONE, Method: PREINCUBATION) “active; positive”. Besides, the mutagenic call by setting is: (Test System: AMES SALMONELLA TYPHIMURIUM, Strain/Indicator: TA1535, Metabolic Activation: RAT, LIVER, S-9, AROCLOR 1254 (10%), Method: PREINCUBATION) “active; positive”; (Test System: AMES SALMONELLA TYPHIMURIUM, Strain/Indicator: TA1535, Metabolic Activation: RAT, LIVER, S-9, AROCLOR 1254, Method: PREINCUBATION) “active; positive”; (Test System: AMES SALMONELLA TYPHIMURIUM, Strain/Indicator: TA1537, Metabolic Activation: HAMSTER, LIVER, S-9, AROCLOR 1254, Method: PREINCUBATION) “inactive; negative”; (Test System: AMES SALMONELLA TYPHIMURIUM, Strain/Indicator: TA1537, Metabolic Activation: NONE, Method: PREINCUBATION) “inactive; negative”; (Test System: AMES SALMONELLA TYPHIMURIUM, Strain/Indicator: TA1537, Metabolic Activation: RAT, LIVER, S-9, AROCLOR 1254, Method: PREINCUBATION) “inactive; negative”; (Test System: MOUSE LYMPHOMA, Strain/Indicator: L5178Y (HPRT), Metabolic Activation: NONE, Method: SUSPENSION/PLATE) “inactive; negative”. Further, the mutagenic call (Test System: MOUSE LYMPHOMA, Strain/Indicator: L5178Y (TK+/TK-), Metabolic Activation: NONE, Method: SUSPENSION/PLATE) was “active; positive”.

In the case of `OC1(c2ccc(Cl)cc2)c2ccccc2C2=NCCN21` (stereo unspecified), the mutagenic call reads like this: (Test System: CHINESE HAMSTER V-79, Strain/Indicator: V-79/6-THIOGUANINE, Metabolic Activation: NONE) “active; positive”; (Test System: CHINESE HAMSTER V-79, Strain/Indicator: V-79/6-THIOGUANINE, Metabolic Activation: S-9) “active; positive”.

The record behind these values is PubChem BioAssay AID1259407 (Chemical Carcinogenesis Research Information System (CCRIS), 2018).
